Holding throughout (type): cell-based, human
Data set [1] relates to HaCaT cells. The experiment in a line: MTT assay of cytotoxicity in HaCaT cells. Particulars: 24 hours. Here is the method: In order to examine cytotoxicity of kaempferol and quercetin in HaCaT, which is a skin cell line of human epidermis, according to the concentrations thereof, HaCaT was treated with kaempferol and quercetin in several concentrations and then degrees of cytotoxicity were quantified through a MTT assay.
HaCaT of human keratinocyte cell line, which was spontaneously immortalized, was used and obtained from Dr. N. E. Fusenig (Deutsches Krebsforschungszentrum (DKFZ), Heidelberg, Germany). The cells were cultured in a Dulbecco's modified Eagle's media (DMEM) containing 10% fetal bovine serum (HyClone), sodium bicarbonate 3.6 g/l and antibody (streptomycin 100 μg and penicillin 100 IU/l) (Life Technologies, Inc.) under proper culture conditions (37° C., 5% CO2, 95% air). The medium was replaced every three days and the cells were secondary-cultured in a division ratio of 1:5 as soon as the density thereof reached the highest. 1×10^4 cells per well of a tissue culture flask 96 well plate were aliquot 72 hours before the cells were treated with kaempferol or quercetin, and then cultured in a medium containing 10% fetal bovine serum for 48 hours. Then, the cells were cultured for 24 hours in a serum-free medium, treated with kaempferol and quercetin in concentrations of 0.1 μM, 1 μM and 10 μM, respectively and then cultured for 24 hours. A control group was diluted in a ratio of 1:1,000 and cultured in a medium supplemented with vehicle (dimethylsulfoxide, DMSO).
(§1) A significance was considered, based on p=0.05 and data was shown with mean±standard error.

In data set [2] the test system is HaCaT cells. The data set is described as follows: HA-ELISA of hyaluronic acid discharged into culture medium of HaCaT cells. Particulars: 24 hours. The procedure:
Firstly, the cells were cultured in a Dulbecco's modified Eagle's media (DMEM) containing 10% fetal bovine serum (HyClone), sodium bicarbonate 3.6 g/l and antibody (streptomycin 100 μg and penicillin 100 IU/l) (Life Technologies, Inc.) under proper culture conditions (37° C., 5% CO2, 95% air). The medium was replaced every three days and the cells were secondary-cultured in a division ratio of 1:5 as soon as the density thereof reached the highest. 1×10^5 cells per 75 cm^2 of a tissue culture flask were aliquot 72 hours before the cell were treated with kaempferol or quercetin, and then cultured in a medium containing 10% fetal bovine serum for 48 hours. Then, the cells were cultured in a serum-free medium for 24 hours, treated with kaempferol and quercetin in concentrations of […], 1 μM and 10 μM, respectively and then cultured for 24 hours. A control group was diluted in a ratio of 1:1,000 and cultured in a medium supplemented with vehicle (dimethylsulfoxide, DMSO).
In order to examine that a production of hyaluronic acid was actually promoted by kaempferol and quercetin, a culture medium of HaCaT cell, which is a skin cell line of human epidermis was treated with kaempferol and quercetin, in several concentrations. After that, an amount of hyaluronic acid that synthesis of hyaluronic acid is promoted and then the acid is discharged into the medium was quantified using HA-ELISA Kit.
To perform the ELISA, it was purchased a Hyaluronan Enzyme-Linked ImmunoSorbent Assay Kit (HA-ELISA, Product No.: K-1200) available from Echelon company. The medium recovered through the above cell cultivation was subject to the HA-ELISA Kit according to manufacturer's instructions, thereby quantifying the synthesis amount of hyaluronic acid that was synthesized in HaCaT cell by kaempferol and quercetin and then discharged into the medium. The control group was diluted in a ratio of 1:1,000 and then cultured in a medium supplemented with vehicle (dimethylsulfoxide, DMSO).
as §1

In data set [3] the test system is hyaluronan synthase 2 (HAS2). The experiment in a line: Quantitative reverse transcription PCR of HAS2 mRNA in HaCaT cells. Conditions: treated 24 hours, expressed in treatment groups as well as the control group. The source says:
In order to examine an effect of increasing an expression of a HAS gene by kaempferol and quercetin in HaCaT which is a skin cell line of human epidermis, HaCaT cells were respectively treated with kaempferol and quercetin in several concentrations, then the HAS gene was subject to quantitative reverse transcription PCR so as to examine an expression of the HAS gene in a level of mRNA and thus changes of the HAS genes by kaempferol and quercetin were examined as follows. Human keratinocyte cell line, HaCaT cell, which was spontaneously immortalized, was used and obtained from Dr. N. E. Fusenig (Deutsches Krebsforschungszentrum (DKFZ), Heidelberg, Germany). […] A concentration of RNA was measured with a spectrophotometry method and a quality of RNA was checked with an agarose gel electrophoresis. It was examined through a quantitative reverse transcription PCR kaempferol and quercetin's influences on mRNA synthesis of hyaluronan synthase 1 (NAS1), hyaluronan synthase 2 (HAS2) and hyaluronan synthase 3 (HAS3), which are isoforms of hyaluronic acid synthase, as follows. Firstly, a RNA prepared and quantified in the above experimental example 1-2 was subject to a reverse transcription and then it was performed a quantitative PCR under the presence of primers specific for HAS1, HAS2 and HAS3 which are isoforms of hyaluronic acid synthase. […]

Data set [4] concerns hyaluronan synthase 3 (HAS3). The data set is described as follows: Quantitative reverse transcription PCR of HAS3 mRNA in HaCaT cells. Particulars: 24 hours. From the text: In order to examine an effect of increasing an expression of a HAS gene by kaempferol and quercetin in HaCaT which is a skin cell line of human epidermis, HaCaT cells were respectively treated with kaempferol and quercetin in several concentrations, then the HAS gene was subject to quantitative reverse transcription PCR so as to examine an expression of the HAS gene in a level of mRNA and thus changes of the HAS genes by kaempferol and quercetin were examined as follows. Human keratinocyte cell line, HaCaT cell, which was spontaneously immortalized, was used and obtained from Dr. N. E. Fusenig (Deutsches Krebsforschungszentrum (DKFZ), Heidelberg, Germany). Firstly, the cells were cultured in a Dulbecco's modified Eagle's media (DMEM) containing 10% fetal bovine serum (HyClone), sodium bicarbonate 3.6 g/l and antibody (streptomycin 100 μg and penicillin 100 IU/l) (Life Technologies, Inc.) under proper culture conditions (37° C., 5% CO2, 95% air). […] A control group was diluted in a ratio of 1:1,000 and cultured in a medium supplemented with vehicle (dimethylsulfoxide, DMSO). It was not observed any effects of DMSO influencing on growth and differentiation in the control group culture. The HaCaT cells cultured in the experimental example 1-1 were cleaned two times with a phosphate-buffered saline (Life Technologies, Inc.) and RNAs of all cells were separated using a trizol reagent (GibcoBRL Life Technologies, Grand Island, N.Y.) according to manufacturer's instructions. A concentration of RNA was measured with a spectrophotometry method and a quality of RNA was checked with an agarose gel electrophoresis. It was examined through a quantitative reverse transcription PCR kaempferol and quercetin's influences on mRNA synthesis of hyaluronan synthase 1 (NAS1), hyaluronan synthase 2 (HAS2) and hyaluronan synthase 3 (HAS3), which are isoforms of hyaluronic acid synthase, as follows. Firstly, a RNA prepared and quantified in the above experimental example 1-2 was subject to a reverse transcription and then it was performed a quantitative PCR under the presence of primers specific for HAS1, HAS2 and HAS3 which are isoforms of hyaluronic acid synthase. […]

The structures appear in SMILES notation.

With `O=c1c(O)c(-c2ccc(O)cc2)oc2cc(O)cc(O)c12` [kaempferol, Kaempferol], the “cytotoxicity compared to the control group (MTT)” value in the data set on HaCaT cells [1] (0.1 μM), in the data set on HaCaT cells [1] (1 μM) and in the data set on HaCaT cells [1] (10 μM) was “did not exhibit cytotoxicity” in each case. For the same molecule, the “increase of hyaluronic acid synthesis compared to the control group” value in the data set on HaCaT cells [2] (1 μM) amounted to 7%; in the data set on HaCaT cells [2] (10 μM) it was 8%. In data set [3], the “expression of HAS2 hyaluronic acid synthase gene (mRNA)” value is listed as “expressed”. Further, the “HAS3 mRNA expression compared to the control group” value in data set [4] (1 μM) and in data set [4] (10 μM) was “increased” in each case.

With `O=c1c(O)c(-c2ccc(O)c(O)c2)oc2cc(O)cc(O)c12` [quercetin], the “cytotoxicity compared to the control group (MTT)” value with HaCaT cells [1] (0.1 μM), in the data set with HaCaT cells [1] (1 μM) and in the data set on HaCaT cells [1] (10 μM) was “did not exhibit cytotoxicity” in each case. Further, the results for the “increase of hyaluronic acid synthesis compared to the control group” value with HaCaT cells [2] (1 μM) and in the data set on HaCaT cells [2] (10 μM) were 11% and 24%, respectively. For the same molecule, the “expression of HAS2 hyaluronic acid synthase gene (mRNA)” value in data set [3] is “expressed”. Moreover, the “HAS3 mRNA expression compared to the control group” value in data set [4] (1 μM) and in data set [4] (10 μM) was “increased” in each case.

Values taken from patent publication US20110124719A1, “COMPOSITION FOR PROMOTING PRODUCTION OF HYALURONIC ACID CONTAINING KAEMPFEROL AND QUERCETIN” (Amorepacific Corporation, priority 2004, published 2011).
